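Cultured in 96-well plates, cells were exposed to test compound for 48 hours across five concentrations. GI50 = concentration required for 50% inhibition of growth.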 Active and inactive are the calls of the source. No stated cut-off is given here; in the data, active = GI50 up to about 1.1 µM and inactive = higher.
Columns and labels:
Assay in all cases: NCI anticancer screen, dose series, 48 h
SNB-19 = test system: SNB-19
NCI-H226 = test system: NCI-H226
LOX IMVI = test system: LOX IMVI
SF-295 = test system: SF-295
HCT-116 = test system: HCT-116
OVCAR-3 = test system: OVCAR-3
OVCAR-5 = test system: OVCAR-5
A549 = test system: A549
M14 = test system: M14
MOLT-4 = test system: MOLT-4
SNB-75 = test system: SNB-75
UO-31 = test system: UO-31
CCRF-CEM = test system: CCRF-CEM
HL-60 = test system: HL-60
UACC-62 = test system: UACC-62
Malme-3M = test system: Malme-3M
SK-OV-3 = test system: SK-OV-3
HCT-15 = test system: HCT-15
HOP-92 = test system: HOP-92
NCI/ADR-RES = test system: NCI/ADR-RES

Row | SMILES | GI50 (SNB-19) | GI50 (NCI-H226) | GI50 (LOX IMVI) | GI50 (SF-295) | GI50 (HCT-116) | GI50 (OVCAR-3) | GI50 (OVCAR-5) | GI50 (A549) | GI50 (M14) | GI50 (MOLT-4) | GI50 (SNB-75) | GI50 (UO-31) | GI50 (CCRF-CEM) | GI50 (HL-60) | GI50 (UACC-62) | GI50 (Malme-3M) | GI50 (SK-OV-3) | GI50 (HCT-15) | GI50 (HOP-92) | GI50 (NCI/ADR-RES)
1 | COc1ccc(C2=CN3CCC[C@H]3C=C2c2cc(O)c(OC)c(OC)c2)cc1OC | 0.00309 µM (active) | 0.00376 µM (active) | 0.00163 µM (active) | 0.00446 µM (active) | 0.00198 µM (active) | 0.00615 µM (active) | 0.00561 µM (active) | 0.00394 µM (active) | 0.00325 µM (active) | 0.00351 µM (active) | 0.00227 µM (active) | 0.0108 µM (active) | 0.0033 µM (active) | 0.00351 µM (active) | 0.00405 µM (active) | 0.00421 µM (active) | 0.00564 µM (active) | 0.00362 µM | 0.0038 µM (active) | 
2 | C1C[N+]23CCC[N+]2(C1)CCC3 (configuration not stated) | > 100 µM (inactive) | > 100 µM (inactive) | > 100 µM (inactive) | > 100 µM (inactive) | > 100 µM (inactive) | > 100 µM (inactive) | > 100 µM (inactive) | > 100 µM (inactive) | > 100 µM (inactive) | > 100 µM (inactive) | 97.5 µM (inactive) | 99.8 µM (inactive) | 31.6 µM (inactive) | 31.1 µM (inactive) | > 100 µM (inactive) | > 100 µM (inactive) | > 100 µM (inactive) | > 100 µM | > 100 µM (inactive) | 
3 | O=C1C(=O)C(Br)(Br)C(Br)=C1Br | 68.9 µM (inactive) |  | 13.7 µM (inactive) | 57.4 µM (inactive) |  | 15.5 µM (inactive) | 13.6 µM (inactive) | 37.4 µM (inactive) | 17.6 µM (inactive) | 24.4 µM (inactive) | 14.4 µM (inactive) | 17.8 µM (inactive) | 16.2 µM (inactive) | 18.7 µM (inactive) | 18.5 µM (inactive) | 20 µM (inactive) | > 100 µM (inactive) | 19.8 µM | 14 µM (inactive) | 
4 | CC(=O)OC1CC[C@@]2(C)C(C1)CC(OC(C)=O)[C@@H]1C2CC(OC(C)=O)[C@]2(C)C(C(C)CC=C(c3ccc(Cl)cc3)c3ccc(Cl)cc3)CCC12 (some centres not stated) | 58.6 µM (inactive) |  |  | 52.1 µM (inactive) | 19.6 µM (inactive) |  | 36.8 µM (inactive) | 64 µM (inactive) | 80.4 µM (inactive) | 20 µM (inactive) | 49.5 µM (inactive) | 56.2 µM (inactive) | 16.3 µM (inactive) | 4.7 µM (inactive) |  |  | > 100 µM (inactive) | 38.1 µM |  | > 100 µM (inactive)
5 | O=C(OCCOCCOC(=O)c1c[nH]cc1-c1ccccc1)c1c[nH]cc1-c1ccccc1 | 24.3 µM (inactive) | 19.2 µM (inactive) | 16.4 µM (inactive) | 18.4 µM (inactive) | 16 µM (inactive) | 22.1 µM (inactive) | 25.8 µM (inactive) | 22.2 µM (inactive) | 14.8 µM (inactive) | 17.9 µM (inactive) | 17.2 µM (inactive) | 14.1 µM (inactive) | 23 µM (inactive) | 17.9 µM (inactive) | 15.9 µM (inactive) | 18.9 µM (inactive) | 35.1 µM (inactive) | 19.2 µM | 20.3 µM (inactive) | 
6 | Cc1ccc(C)c(N2C(=O)C(=O)C(c3nc4ccccc4s3)/C(=N\c3cccc4c(=O)[nH][nH]c(=O)c34)C2=O)c1 (configuration not stated) | > 100 µM (inactive) | > 100 µM (inactive) | > 100 µM (inactive) | > 100 µM (inactive) | > 100 µM (inactive) | > 100 µM (inactive) | > 100 µM (inactive) | > 100 µM (inactive) | > 100 µM (inactive) | > 100 µM (inactive) | 97.9 µM (inactive) | > 100 µM (inactive) | > 100 µM (inactive) | > 100 µM (inactive) | > 100 µM (inactive) | > 100 µM (inactive) | > 100 µM (inactive) | > 100 µM | > 100 µM (inactive) | 
7 | O=C(O)CNS(=O)(=O)c1ccc(NC(=O)c2cccc([N+](=O)[O-])c2)cc1 | > 100 µM (inactive) | > 100 µM (inactive) | > 100 µM (inactive) | > 100 µM (inactive) |  | > 100 µM (inactive) | > 100 µM (inactive) | > 100 µM (inactive) | > 100 µM (inactive) | > 100 µM (inactive) | > 100 µM (inactive) | > 100 µM (inactive) | > 100 µM (inactive) | > 100 µM (inactive) | > 100 µM (inactive) | > 100 µM (inactive) | > 100 µM (inactive) | > 100 µM | > 100 µM (inactive) | 
8 | CCOC(=O)N(Cc1cccs1)c1cc(OC)c(OC)c(OC)c1 | > 100 µM (inactive) | 86.3 µM (inactive) | 45.2 µM (inactive) | > 100 µM (inactive) | > 100 µM (inactive) | 53.8 µM (inactive) | > 100 µM (inactive) | 94.6 µM (inactive) | > 100 µM (inactive) | 13.6 µM (inactive) | 49.4 µM (inactive) | 38.4 µM (inactive) | 41 µM (inactive) | 34.8 µM (inactive) | 40 µM (inactive) | > 100 µM (inactive) |  | 62.4 µM |  | 3.01 µM (inactive)
9 | N#CNc1nc(N)c(-c2ccc(Cl)cc2)c(C(=O)Nc2nccs2)n1 | > 100 µM (inactive) | > 100 µM (inactive) | > 100 µM (inactive) | > 100 µM (inactive) | > 100 µM (inactive) | > 100 µM (inactive) | > 100 µM (inactive) | > 100 µM (inactive) | > 100 µM (inactive) | > 100 µM (inactive) | > 100 µM (inactive) | > 100 µM (inactive) |  | > 100 µM (inactive) | > 100 µM (inactive) | > 100 µM (inactive) |  | > 100 µM | > 100 µM (inactive) | 
10 | CCCCNC(=O)CCN(C(=O)O)S(=O)(=O)c1ccc(NC(=O)c2ccccc2)cc1 | > 100 µM (inactive) | > 100 µM (inactive) | 18.8 µM (inactive) | > 100 µM (inactive) | > 100 µM (inactive) | > 100 µM (inactive) | > 100 µM (inactive) | > 100 µM (inactive) | > 100 µM (inactive) | > 100 µM (inactive) | > 100 µM (inactive) | > 100 µM (inactive) | > 100 µM (inactive) | > 100 µM (inactive) | > 100 µM (inactive) | > 100 µM (inactive) | > 100 µM (inactive) | > 100 µM | > 100 µM (inactive) | 
11 | C=C(CCCCC)CN1CCCC1[C@@](C)(O)CC(=O)OCC (some centres not stated) | > 100 µM (inactive) | > 100 µM (inactive) | > 100 µM (inactive) | > 100 µM (inactive) | > 100 µM (inactive) | > 100 µM (inactive) | > 100 µM (inactive) | > 100 µM (inactive) | > 100 µM (inactive) | 90.2 µM (inactive) | > 100 µM (inactive) | > 100 µM (inactive) | > 100 µM (inactive) | 28.6 µM (inactive) | > 100 µM (inactive) | > 100 µM (inactive) | > 100 µM (inactive) | > 100 µM | > 100 µM (inactive) | 
12 | NS(=O)(=O)c1ccc(NC(=O)c2cccc3c(Nc4ccc(S(N)(=O)=O)cc4)c4ccccc4nc23)cc1 | 30.8 µM (inactive) |  | 5.55 µM (inactive) | 31.6 µM (inactive) | 46.8 µM (inactive) | 13.6 µM (inactive) | > 100 µM (inactive) | > 100 µM (inactive) | > 100 µM (inactive) | 4.5 µM (inactive) | 14.3 µM (inactive) | 93.5 µM (inactive) | 6.18 µM (inactive) | 28.6 µM (inactive) | 31.8 µM (inactive) | 43.9 µM (inactive) | > 100 µM (inactive) | 37.3 µM | 33.8 µM (inactive) | 
13 | C/C=C1\CN2CCc3c([nH]c4ccccc34)C2C=C1CCO (configuration not stated) | > 340 µM (inactive) | > 340 µM (inactive) | > 340 µM (inactive) | > 340 µM (inactive) | > 340 µM (inactive) | 231 µM (inactive) | > 340 µM (inactive) | > 340 µM (inactive) |  | > 340 µM (inactive) |  |  | > 340 µM (inactive) | > 340 µM (inactive) | > 340 µM (inactive) | > 340 µM (inactive) | > 340 µM (inactive) | > 340 µM | > 340 µM (inactive) | 
14 | COC(=O)/C(=N\NC(C)(C)C)C(C(=O)OC)C(=O)C(=O)Nc1cc(Cl)ccc1Cl (configuration not stated) | > 100 µM (inactive) | > 100 µM (inactive) | > 100 µM (inactive) | > 100 µM (inactive) | > 100 µM (inactive) | > 100 µM (inactive) | > 100 µM (inactive) | > 100 µM (inactive) | > 100 µM (inactive) | > 100 µM (inactive) | > 100 µM (inactive) | > 100 µM (inactive) | > 100 µM (inactive) | > 100 µM (inactive) | > 100 µM (inactive) | > 100 µM (inactive) | > 100 µM (inactive) | > 100 µM | > 100 µM (inactive) | 
15 | Cc1ccc(NC(=O)COC(=O)c2cccc3c(=O)c4ccccc4[nH]c23)cc1 | 40.6 µM (inactive) | 26.5 µM (inactive) | 16.9 µM (inactive) | 35.7 µM (inactive) | 14.6 µM (inactive) | 54 µM (inactive) |  | 36.6 µM (inactive) | 68.5 µM (inactive) | 13.6 µM (inactive) | 31.3 µM (inactive) | 5.35 µM (inactive) |  | 38.3 µM (inactive) | 30.6 µM (inactive) | 47 µM (inactive) | 25.5 µM (inactive) |  | 82.8 µM (inactive) | 

From ChEMBL document CHEMBL1201862, “PubChem BioAssay data set” (2004)
